Assay results reported in patent US8008329B2 (Dong Wha Pharmaceutical Co., Ltd., priority 2008, dated 2011).
Marks after values point to notes of the source that are not given here.

Tested on: osteoclast differentiation
Test: Osteoclast differentiation in co-culture of mouse bone marrow cells and ST2 cells, TRAP staining (Examples 8-9)
Format: cell-based
Conditions: for % number of osteoclast (vs. solvent control group): 0.1 μM each, day 7; for activity at 0.1 µM: Mus musculus, Osteoclast, 168 h, Individual treatment (compounds), day 7, read-out: % number of osteoclast (vs. solvent control group)
Method: The differentiation of osteoclast from mouse bone marrow cells was induced by using co-culture system, and inhibitory effect of the drug on osteoclast differentiation was evaluated by treatment of single or combination formulation. Co-culture was performed using mouse bone marrow cells and ST cells of bone marrow-derived stromal cell.
Femora and tibia were aseptically ectomized from 6˜8 week-old male ddY mice to harvest bone marrow cells by a general method using a syringe. The red blood cells were removed from the bone marrow cells, followed by centrifugation. The bone marrow cells were suspended in α-MEM medium supplemented with 10% fetal bovine serum, and the numbers of the eukaryotic cells in the harvested bone marrow cells were counted and then immediately used for a co-culture system.
ST2 cells (RIKEN Cell Bank, Tsukuba, Japan) were cultured in α-MEM medium supplemented with 10% fetal bovine serum until confluent. Then, these cells were diluted to a desired cell number, and used for the experiment.
The bone marrow cells (1×10^5 cells/well) and ST2 cells (3,000 cells/well) prepared in the above were plated in a 96-well plate using α-MEM medium supplemented with 10% fetal bovine serum. At this time, differentiation factors, 1α,25-dihydroxyvitamin D3 (10^−8 M, hereinbelow, referred to as vitamin D3) and dexamethasone (10^−8 M), were co-added to the medium to induce osteoclast differentiation. The medium was replaced with fresh media containing the differentiation factors every 2 to 3 days.
After 7 days, when multinucleated osteoclasts were observed, the medium was removed from the wells, and then the cells were fixed with PBS containing 10% Formalin. Tartrate-Resistant Acid Phosphatase (hereinbelow, referred to as TRAP) was used as a marker to measure the mature osteoclast in consideration of its characteristics showing a positive reaction to a TRAP staining solution. The TRAP staining solution was prepared in such the manner that a substrate, naphtol AS-MS phosphate and a coloring agent (Fast Red Violet LB salt) were dissolved in N,N-dimethylformamide. A 0.1 N NaHCO3 buffer solution containing 50 mM tartaric acid was added thereto, and the mixture was stored at a refrigerator prior to use as a staining solution. The osteoclasts with 6-7 or more nuclei showing a TRAP-positive reaction were counted under a microscope.
Alendronic acid was dissolved in distilled water at a concentration of 0.1 mM, and benzamidine derivatives were dissolved in DMSO at a concentration of 0.1 mM. All of them were diluted 1,000 fold with the differentiation media to a final concentration of 0.1 μM, respectively. In this connection, a control group was maintained in 0.1% DMSO.
As the above described, the sample substances and cells, which were diluted to the desired concentrations, were plated in 96-well plate, and co-cultured. On days 3 and 5 of culture, the media were replaced with fresh differentiation media containing the sample substances. On day 7 of culture, TRAP staining was performed to count the mature multinucleated osteoclast that was formed by differentiation. The mature osteoclasts with 6 or more nuclei were counted under a microscope. The results were expressed as a percentage (%) of the number of mature osteoclast observed in each experimental group, when the number of mature osteoclast in the control group (solvent only) was regarded as 100%. The experiment was performed with 4 wells per experimental group (n=4), and the results were expressed as mean value±standard deviation. In addition, the experiment was repeated at least two times, and Student t-test was applied for significant difference between experimental groups.
The experiment was performed in the same manner as in Example 8 to evaluate the effect of individual or combination treatment of risedronic acid and benzamidine derivatives of Formula 1 on osteoclast differentiation, except using 0.1 μM risedronic acid instead of 0.1 μM alendronic acid. […]

[1] = Combination treatment (alendronic acid + compounds)
[2] = Combination treatment (risedronic acid + compounds)

SMILES	% number of osteoclast (vs. solvent control group) [1]	% number of osteoclast (vs. solvent control group) [2]	activity at 0.1 µM [%]
C=Cc1sc(C)nc1-c1ccc(OCCCCCOc2ccc(C(=N)NO)cc2)cc1 [Compound 74, N-hydroxy-4-{5-[4-(5-vinyl-2-methyl-1,3-thiazole-4-yl)phenoxy]pentyloxy}-benzamidine]	36 ± 4.3^ab %	28 ± 5.4^ac %	60 ± 0.7
COCc1sc(C)nc1-c1ccc(OCCCCCOc2ccc(C(=N)NO)cc2)cc1 [Compound 76, N-hydroxy-4-{5-[4-(5-methoxymethyl-2-methyl-1,3-thiazol-4-yl)phenoxy]pentyloxy}-benzamidine]	31 ± 6.8^ab %	22 ± 3.8^a %	53 ± 6.5
C=Cc1sc(N)nc1-c1ccc(OCCCCCOc2ccc(C(=N)NO)cc2)cc1 [Compound 78, N-hydroxy-4-{5-[4-(5-vinyl-2-amino-1,3-thiazol-4-yl)phenoxy]pentyloxy}-benzamidine]	36 ± 4.2^ab %	20 ± 1.7^a %	67 ± 2.1
C=Cc1sc(-c2cccnc2)nc1-c1ccc(OCCCCCOc2ccc(C(=N)NO)cc2)cc1 [Compound 79, N-hydroxy-4-{5-[4-(5-vinyl-2-(pyridin-3-yl)-1,3-thiazol-4-yl)phenoxy]pentyloxy}-benzamidine]	22 ± 6.7^ab %	16 ± 4.0^ac %	44 ± 7.5
N=C(NO)c1ccc(OCCCCCOc2ccc(-c3nc(-c4cccnc4)sc3CCCl)cc2)cc1 [Compound 80, N-hydroxy-4-{5-[4-(5-(2-chloroethyl)-2-(pyridin-3-yl)-1,3-thiazol-4-yl)phenoxy]pentyloxy}-benzamidine]	42 ± 9.9^b %	38 ± 3.7^ac %	65 ± 1.4
CCNc1nc(-c2ccc(OCCCCCOc3ccc(C(=N)NO)cc3)cc2)cs1 [Compound 84, N-hydroxy-4-{5-[4-(2-ethylamino-1,3-thiazol-4-yl)phenoxy]pentyloxy}-benzamidine]	30 ± 5.1^ab %	6 ± 4.4^ac %	44 ± 4.3
CCCNc1nc(-c2ccc(OCCCCCOc3ccc(C(=N)NO)cc3)cc2)c(C)s1 [Compound 88, N-hydroxy-4-{5-[4-(5-methyl-2-propylamino-1,3-thiazol-4-yl)phenoxy]pentyloxy}-benzamidine]	61 ± 11.7%	29 ± 4.7^ac %	63 ± 7.6
N=C(NO)c1ccc(OCCCCCOc2ccc(-c3nc(NC(=O)c4cccnc4)sc3CC3CCCC3)cc2)cc1 [Compound 89, N-hydroxy-4-{5-[4-(5-cyclopentylmethyl-2-(3-pyridylcarbonyl)amino-1,3-thiazol-4-yl)phenoxy]pentyloxy}-benzamidine]	38 ± 1.9^ab %	39 ± 2.7^ac %	58 ± 5.1
Cc1sc(NC(=O)CO)nc1-c1ccc(OCCCCCOc2ccc(C(=N)NO)cc2)cc1 [Compound 90, N-hydroxy-4-{5-[4-(2-hydroxyacetylamino-5-methyl-1,3-thiazol-4-yl)phenoxy]pentyloxy}-benzamidine]	54 ± 8.6^ab %	39 ± 8.4^ac %	87 ± 10
Cc1sc(NC(=O)c2ccncc2)nc1-c1ccc(OCCCCCOc2ccc(C(=N)NO)cc2)cc1 [Compound 91, N-hydroxy-4-{5-[4-(5-methyl-2-(4-pyridylcarbonyl)amino-1,3-thiazol-4-yl)phenoxy]pentyloxy}-benzamidine]	35 ± 2.7^ab %	32 ± 7.0^ac %	60 ± 8.8
COCCNc1nc(-c2ccc(OCCCCCOc3ccc(C(=N)NO)cc3)cc2)c(C)s1 [Compound 94, N-hydroxy-4-{5-[4-(2-(2-methoxyethyl)amino-5-methyl-1,3-thiazol-4-yl)phenoxy]pentyloxy}-benzamidine]	20 ± 4.8^ab %	16 ± 3.3^ac %	45 ± 3
CCc1sc(NS(=O)(=O)CC)nc1-c1ccc(OCCCCCOc2ccc(C(=N)NO)cc2)cc1 [Compound 95, N-hydroxy-4-{5-[4-(2-ethanesulphonylamino-5-ethyl-1,3-thiazol-4-yl)phenoxy]pentyloxy}-benzamidine]	37 ± 10.3^ab %	33 ± 6.8^ac %	90 ± 5.4
CCc1sc(NC)nc1-c1ccc(OCCCCCOc2ccc(C(=N)NO)cc2)cc1 [Compound 96, N-hydroxy-4-{5-[4-(5-ethyl-2-methylamino-1,3-thiazol-4-yl)phenoxy]pentyloxy}-benzamidine]	55 ± 10.0%	34 ± 7.1^ac %	74 ± 8.1
CCNc1nc(-c2ccc(OCCCCCOc3ccc(C(=N)NO)cc3)cc2)c(CC)s1 [Compound 97, N-hydroxy-4-{5-[4-(5-ethyl-2-ethylamino-1,3-thiazol-4-yl)phenoxy]pentyloxy}-benzamidine]	30 ± 5.7^ab %	13 ± 4.3^ac %	57 ± 5.2
CCCNc1nc(-c2ccc(OCCCCCOc3ccc(C(=N)NO)cc3)cc2)c(CC)s1 [Compound 98, N-hydroxy-4-{5-[4-(5-ethyl-2-propylamino-1,3-thiazol-4-yl)phenoxy]pentyloxy}-benzamidine]	29 ± 1.6^ab %	11 ± 3.2^ac %	47 ± 3.2
CCc1sc(NC(=O)c2ccncc2)nc1-c1ccc(OCCCCCOc2ccc(C(=N)NO)cc2)cc1 [Compound 100, N-hydroxy-4-{5-[4-(5-ethyl-2-(4-pyridylcarbonyl)amino-1,3-thiazol-4-yl)phenoxy]pentyloxy}-benzamidine]	14 ± 6.9^ab %	12 ± 3.0^ac %	46 ± 8.4
CCc1sc(NC(=O)c2cccnc2)nc1-c1ccc(OCCCCCOc2ccc(C(=N)NO)cc2)cc1 [Compound 101, N-hydroxy-4-{5-[4-(5-ethyl-2-(3-pyridylcarbonyl)amino-1,3-thiazol-4-yl)phenoxy]pentyloxy}-benzamidine]	24 ± 3.2^ab %	18 ± 2.8^ac %	50 ± 5.9
CCc1sc(NCCOC)nc1-c1ccc(OCCCCCOc2ccc(C(=N)NO)cc2)cc1 [Compound 102, N-hydroxy-4-{5-[4-(5-ethyl-2-(2-methoxyethyl)amino-1,3-thiazol-4-yl)phenoxy]pentyloxy}-benzamidine]	37 ± 3.6^b %	21 ± 2.6^ac %	47 ± 4
CCCCc1sc(NC)nc1-c1ccc(OCCCCCOc2ccc(C(=N)NO)cc2)cc1 [Compound 105, N-hydroxy-4-{5-[4-(5-butyl-2-methylamino-1,3-thiazol-4-yl)phenoxy]pentyloxy}-benzamidine]	42 ± 3.0^b %	41 ± 8.8^ac %	87 ± 11
